From ChEMBL document CHEMBL1687837, “Roles of residues Cys69, Asn104, Phe160, Gly232, Ser237, and Asp240 in extended-spectrum beta-lactamase Toho-1” (2011)
Values after ≈ are worked out from the molar mass of the structure shown.

How the values were obtained:
[1] = test system: Escherichia coli; experiment: Activity of Escherichia coli beta-lactamase Toho-1 N104D mutant assessed as compound hydrolysis by spectrophotometry
[2] = test system: Escherichia coli; experiment: Activity of Escherichia coli beta-lactamase Toho-1 […] mutant assessed as compound hydrolysis by spectrophotometry
[3] = test system: Escherichia coli; experiment: Activity of Escherichia coli beta-lactamase Toho-1 N104A mutant assessed as compound hydrolysis by spectrophotometry
[4] = test system: Escherichia coli; experiment: Activity of Escherichia coli beta-lactamase Toho-1 D240S mutant assessed as compound hydrolysis by spectrophotometry
[5] = test system: Escherichia coli; experiment: Activity of Escherichia coli beta-lactamase Toho-1 D240A mutant assessed as compound hydrolysis by spectrophotometry
[6] = test system: Escherichia coli; experiment: Activity of Escherichia coli beta-lactamase Toho-1 C69A mutant assessed as compound hydrolysis by spectrophotometry
[7] = test system: Escherichia coli; experiment: Activity of Escherichia coli beta-lactamase Toho-1 F160T mutant assessed as compound hydrolysis by spectrophotometry
[8] = test system: Escherichia coli; experiment: Activity of Escherichia coli beta-lactamase Toho-1 G232A mutant assessed as compound hydrolysis by spectrophotometry
[9] = test system: Escherichia coli; experiment: Ratio of Kcat to Km for Escherichia coli beta-lactamase Toho-1 N104A mutant assessed as compound hydrolysis by spectrophotometry
[10] = test system: Escherichia coli; experiment: Ratio of Kcat to Km for Escherichia coli beta-lactamase Toho-1 N104D mutant assessed as compound hydrolysis by spectrophotometry
[11] = test system: Escherichia coli; experiment: Ratio of Kcat to Km for Escherichia coli beta-lactamase Toho-1 […] mutant assessed as compound hydrolysis by spectrophotometry
[12] = test system: Escherichia coli; experiment: Ratio of Kcat to Km for Escherichia coli beta-lactamase Toho-1 D240S mutant assessed as compound hydrolysis by spectrophotometry
[13] = test system: Escherichia coli; experiment: Ratio of Kcat to Km for Escherichia coli beta-lactamase Toho-1 D240A mutant assessed as compound hydrolysis by spectrophotometry
[14] = test system: Escherichia coli; experiment: Ratio of Kcat to Km for Escherichia coli beta-lactamase Toho-1 C69A mutant assessed as compound hydrolysis by spectrophotometry
[15] = test system: Escherichia coli; experiment: Ratio of Kcat to Km for Escherichia coli beta-lactamase Toho-1 F160T mutant assessed as compound hydrolysis by spectrophotometry
[16] = test system: Escherichia coli; experiment: Ratio of Kcat to Km for Escherichia coli beta-lactamase Toho-1 G232A mutant assessed as compound hydrolysis by spectrophotometry
[17] = test system: Escherichia coli; experiment: Antibacterial activity against Escherichia coli AS226 carrying pBSD-H2 after 18 hrs by broth microdilution method; assay type: functional; conditions: AS226, 18 h
[18] = test system: Escherichia coli; experiment: Antibacterial activity against Escherichia coli AS226 carrying pBSDN104A mutant after 18 hrs by broth microdilution method; assay type: functional; conditions: AS226, 18 h
[19] = test system: Escherichia coli; experiment: Antibacterial activity against Escherichia coli AS226 carrying pBSDN104D mutant after 18 hrs by broth microdilution method; assay type: functional; conditions: AS226, 18 h
[20] = test system: Escherichia coli; experiment: Antibacterial activity against Escherichia coli AS226 carrying pBSDS237A mutant after 18 hrs by broth microdilution method; assay type: functional; conditions: AS226, 18 h
[21] = test system: Escherichia coli; experiment: Antibacterial activity against Escherichia coli AS226 carrying pBSDD240S mutant after 18 hrs by broth microdilution method; assay type: functional; conditions: AS226, 18 h
[22] = test system: Escherichia coli; experiment: Antibacterial activity against Escherichia coli AS226 carrying pBSDD240A mutant after 18 hrs by broth microdilution method; assay type: functional; conditions: AS226, 18 h
[23] = test system: Escherichia coli; experiment: Antibacterial activity against Escherichia coli AS226 carrying pBSDC69A mutant after 18 hrs by broth microdilution method; assay type: functional; conditions: AS226, 18 h
[24] = test system: Escherichia coli; experiment: Antibacterial activity against Escherichia coli AS226 carrying pBSDF160T mutant after 18 hrs by broth microdilution method; assay type: functional; conditions: AS226, 18 h
[25] = test system: Escherichia coli; experiment: Antibacterial activity against Escherichia coli AS226 carrying pBSD6 mutant after 18 hrs by broth microdilution method; assay type: functional; conditions: AS226, 18 h
[26] = test system: Escherichia coli; experiment: Antibacterial activity against Escherichia coli AS226 after 18 hrs by broth microdilution method; assay type: functional; conditions: AS226, 18 h
[27] = substrate: CC(=O)OCC1=C(C(=O)O)N2C(=O)[C@@H](NC(=O)Cc3cccs3)[C@H]2SC1; experiment: (§1) Activity of Escherichia coli wild type beta-lactamase Toho-1 assessed as compound hydrolysis by spectrophotometry
[28] = substrate: CC1(C)S[C@@H]2[C@H](NC(=O)[C@H](N)c3ccccc3)C(=O)N2[C@H]1C(=O)O; experiment: as §1
[29] = substrate: CO/N=C(\C(=O)N[C@@H]1C(=O)N2C(C(=O)O)=C(COC(C)=O)CS[C@H]12)c1csc(N)n1; experiment: as §1
[30] = substrate: CO/N=C(\C(=O)N[C@@H]1C(=O)N2C(C(=O)O)=C(CSc3cnns3)CS[C@H]12)c1csc(N)n1; experiment: as §1
[31] = substrate: C[C@H]1[C@H](NC(=O)/C(=N\OC(C)(C)C(=O)O)c2csc(N)n2)C(=O)N1S(=O)(=O)O; experiment: as §1
[32] = substrate: O=C(Cc1cccs1)N[C@@H]1C(=O)N2C(C(=O)[O-])=C(C[n+]3ccccc3)CS[C@H]12; experiment: as §1
[33] = substrate: CC(=O)OCC1=C(C(=O)O)N2C(=O)[C@@H](NC(=O)Cc3cccs3)[C@H]2SC1; experiment: (§2) Ratio of Kcat to Km for Escherichia coli wild type beta-lactamase Toho-1 assessed as compound hydrolysis by spectrophotometry
[34] = substrate: CO/N=C(\C(=O)N[C@@H]1C(=O)N2C(C(=O)O)=C(COC(C)=O)CS[C@H]12)c1csc(N)n1; experiment: as §2
[35] = substrate: CO/N=C(\C(=O)N[C@@H]1C(=O)N2C(C(=O)O)=C(CSc3cnns3)CS[C@H]12)c1csc(N)n1; experiment: as §2
[36] = substrate: C[C@H]1[C@H](NC(=O)/C(=N\OC(C)(C)C(=O)O)c2csc(N)n2)C(=O)N1S(=O)(=O)O; experiment: as §2
[37] = substrate: O=C(Cc1cccs1)N[C@@H]1C(=O)N2C(C(=O)[O-])=C(C[n+]3ccccc3)CS[C@H]12; experiment: as §2

Q: With O=C(Cc1cccs1)N[C@@H]1C(=O)N2C(C(=O)[O-])=C(C[n+]3ccccc3)CS[C@H]12 [CEPHALORIDINE] as the molecule, how does the Km [1] read?
A: 400 µM

Q: And the kcat [1]?
A: 120 s⁻¹

Q: What about the Km [2] of the same molecule?
A: 270 µM

Q: And the kcat [2]?
A: 320 s⁻¹

Q: What about the Km [3] of the same molecule?
A: 450 µM

Q: And the kcat [3]?
A: 99 s⁻¹

Q: What about the Km [4] of the same molecule?
A: 250 µM

Q: And the kcat [4]?
A: 190 s⁻¹

Q: And the Km [5]?
A: 200 µM

Q: And the kcat [5]?
A: 140 s⁻¹

Q: What about the Km [6] of the same molecule?
A: 300 µM

Q: And the kcat [6]?
A: 300 s⁻¹

Q: And the Km [7]?
A: 430 µM

Q: What about the kcat [7] of the same molecule?
A: 470 s⁻¹

Q: And the Km [8]?
A: 290 µM

Q: And the kcat [8]?
A: 440 s⁻¹

Q: What about the kcat/Km [9] of the same molecule?
A: 2.2 ×10⁵ /s/M

Q: What about the kcat/Km [10] of the same molecule?
A: 3 ×10⁵ /s/M

Q: And the kcat/Km [11]?
A: 1.2 ×10⁶ /s/M

Q: And the kcat/Km [12]?
A: 7.6 ×10⁵ /s/M

Q: And the kcat/Km [13]?
A: 7.1 ×10⁵ /s/M

Q: And the kcat/Km [14]?
A: 1 ×10⁶ /s/M

Q: What about the kcat/Km [15] of the same molecule?
A: 1.1 ×10⁶ /s/M

Q: What about the kcat/Km [16] of the same molecule?
A: 1.5 ×10⁶ /s/M

Q: And the MIC [17]?
A: 1020 µg/mL (≈ 2460 µM)

Q: And the MIC [18]?
A: 32 µg/mL (≈ 77 µM)

Q: And the MIC [19]?
A: 256 µg/mL (≈ 616 µM)

Q: And the MIC [20]?
A: 2050 µg/mL (≈ 4930 µM)

Q: What about the MIC [21] of the same molecule?
A: 1020 µg/mL (≈ 2460 µM)

Q: And the MIC [22]?
A: 1020 µg/mL (≈ 2460 µM)

Q: What about the MIC [23] of the same molecule?
A: 1020 µg/mL (≈ 2460 µM)

Q: And the MIC [24]?
A: 512 µg/mL (≈ 1230 µM)

Q: And the MIC [25]?
A: 8 µg/mL (≈ 19.3 µM)

Q: What about the MIC [26] of the same molecule?
A: 2 µg/mL (≈ 4.81 µM)

B1: Beta-lactamase Toho-1 (Escherichia coli), Q47066 (protein)
chain: MMTQSIRRSMLTVMATLPLLFSSATLHAQANSVQQQLEALEKSSGGRLGVALINTADNSQILYRADERFAMCSTSKVMAAAAVLKQSESDKHLLNQRVEIKKSDLVNYNPIAEKHVNGTMTLAELGAAALQYSDNTAMNKLIAHLGGPDKVTAFARSLGDETFRLDRTEPTLNTAIPGDPRDTTTPLAMAQTLKNLTLGKALAETQRAQLVTWLKGNTTGSASIRAGLPKSWVVGDKTGSGDYGTTNDIAVIWPENHAPLVLVTYFTQPEQKAERRRDILAAAAKIVTHGF
Q: With B1 as the molecule, how does the Km [27] read?
A: 190 µM

Q: And the kcat [27]?
A: 790 s⁻¹

Q: What about the Km [28] of the same molecule?
A: 24 µM

Q: And the kcat [28]?
A: 42 s⁻¹

Q: And the Km [29]?
A: 210 µM

Q: And the kcat [29]?
A: 390 s⁻¹

Q: And the Km [30]?
A: 150 µM

Q: What about the kcat [30] of the same molecule?
A: 530 s⁻¹

Q: And the Km [31]?
A: 45 µM

Q: And the kcat [31]?
A: 8.3 s⁻¹

Q: And the Km [32]?
A: 280 µM

Q: And the kcat [32]?
A: 420 s⁻¹

Q: What about the kcat/Km [33] of the same molecule?
A: 4.3 ×10⁶ /s/M

Q: And the kcat/Km [34]?
A: 1.9 ×10⁶ /s/M

Q: And the kcat/Km [35]?
A: 3.5 ×10⁶ /s/M

Q: What about the kcat/Km [36] of the same molecule?
A: 1.9 ×10⁵ /s/M

Q: And the kcat/Km [37]?
A: 1.5 ×10⁶ /s/M
